What all share (assay type): cell-based
In experiment [1] the test system is H23 non-small cell lung cancer cells. Put plainly: MTS cell density assay, synergy of VE-822 with Rucaparib (MacSynergy II). Conditions: VE-822 + Rucaparib, 96 h, 95% confidence interval. As for the experimental part: (§1) H23 non-small cell lung cancer (a), U2OS osteosarcoma (b), HCT116 colorectal cancer (c), MCF7 breast cancer (d), HT144 melanoma (e), HT29 colorectal cancer (f), and PSN1 pancreatic cancer (g) cells were treated in triplicate with the indicated concentrations of VE-822 and Rucaparib for 96h. Cell density was measured by 3-(4,5-dimethylthiazol-2-yl)-5-(3-carboxymethoxyphenyl)-2-(4-sulfophenyl)-2H-tetrazolium (MTS) assay, and synergy was analyzed at the 95% confidence interval with MacSynergy II software. A range of synergy was observed from strong (a) to negligible (g).
(§2) H23 non-small cell lung cancer (a) and HFL1 normal lung (b) cells were treated in triplicate with the indicated concentrations of VE-822 and Rucaparib for 96h. Cell density was measured by 3-(4,5-dimethylthiazol-2-yl)-5-(3-carboxymethoxyphenyl)-2-(4-sulfophenyl)-2H-tetrazolium (MTS) assay, and synergy was analyzed at the 95% confidence interval with MacSynergy II software.
FIG. 4. […] The synergy plots can be analyzed using methods described in Reaper et al, “Selective Killing of ATM- or p53-deficient cancer cells through inhibition of ATR”, Nat. […]
FIG. 5. […] The synergy plots can be analyzed using methods described in Reaper et al, “Selective Killing of ATM- or p53-deficient cancer cells through inhibition of ATR”, Nat. […]
(Tetrazolium assays rely on reduction of a dye to a coloured formazan, in cell work by metabolically active cells.)

For experiment [2], the system named is PSN1 pancreatic cancer cells. The experiment is described as above. Conditions: VE-822 + Rucaparib, 96 h, 95% confidence interval. The method, then: as §1
(§3) FIG. 4. H23 non-small cell lung cancer (a), U2OS osteosarcoma (b), HCT116 colorectal cancer (c), MCF7 breast cancer (d), HT144 melanoma (e), HT29 colorectal cancer (f) and PSN1 pancreatic cancer (g) cells were treated in triplicate with the indicated concentrations of VE-822 and Rucaparib for 96 h, cell density was measured by 3-(4,5-dimethylthiazol-2-yl)-5-(3-carboxymethoxyphenyl)-2-(4-sulfophenyl)-2H-tetrazolium (MTS) assay and synergy was analyzed at the 95% confidence interval with MacSynergy II software. A range of synergy was observed from strong (a) to negligible (g). The synergy plots can be analyzed using methods described in Reaper et al, “Selective Killing of ATM- or p53-deficient cancer cells through inhibition of ATR”, Nat. Chem. Bio. 2011, Apr. 13; 9 (7):428-430.

For the next experiment, the system named is HFL1 normal lung cells. The experiment is described as above. Conditions: VE-822 + Rucaparib, 96 h, 95% confidence interval. The method, then: as §2
FIG. 5. H23 non-small cell lung cancer (a) and HFL1 normal lung (b) cells were treated in triplicate with the indicated concentrations of VE-822 and Rucaparib for 96 h, cell density was measured by 3-(4,5-dimethylthiazol-2-yl)-5-(3-carboxymethoxyphenyl)-2-(4-sulfophenyl)-2H-tetrazolium (MTS) assay and synergy was analyzed at the 95% confidence interval with MacSynergy II software. The synergy plots can be analyzed using methods described in Reaper et al, “Selective Killing of ATM- or p53-deficient cancer cells through inhibition of ATR”, Nat. Chem. Bio. 2011, Apr. 13; 9 (7):428-430.

Experiment [3] relates to H23, U2OS, HCT116, MCF7, HT144, HT29 and PSN1 cancer cells. The experiment is described as follows: MTS cell density assay, synergy of VE-822 with Rucaparib across a cancer cell line panel. Conditions: seven cancer cell lines, VE-822 + Rucaparib, 96 h, in vitro. The method, then:
as §1, §3

The subject of experiment [4] is H23 non-small cell lung cancer and HFL1 normal lung cells. The experiment is described as follows: MTS cell density assay, triple combination of VE-822, Rucaparib and ionizing radiation. The note with it: H23 versus HFL1 cells, with 2 Gy IR, 96 h, MacSynergy II modified for triple combination. The method, then: (§4) In FIG. 6A, H23 non-small cell lung cancer (a) and HFL1 normal lung (b) cells were treated in triplicate with the indicated concentrations of VE-822 and Rucaparib together with 2 gray (Gy) of IR. Cell density was measured after 96h by 3-(4,5-dimethylthiazol-2-yl)-5-(3-carboxymethoxyphenyl)-2-(4-sulfophenyl)-2H-tetrazolium (MTS) assay, and synergy was analyzed at the 95% confidence interval with MacSynergy II software modified for triple combination studies (Nguyen et al, PLOS One 5:9332). In FIG. 6B, H23 non-small cell lung cancer (a) and HFL1 normal lung (b) cells were treated in triplicate with the indicated concentrations of VE-822 and Rucaparib together with 80nM cisplatin. Cell density was measured after 96h by 3-(4,5-dimethylthiazol-2-yl)-5-(3-carboxymethoxyphenyl)-2-(4-sulfophenyl)-2H-tetrazolium (MTS) assay, and synergy was analyzed at the 95% confidence interval with MacSynergy II software modified for triple combination studies (Nguyen et al, PLOS One 5:9332).
FIG. 6a. […] The synergy plots can be analyzed using methods described in Reaper et al, “Selective Killing of ATM- or p53-deficient cancer cells through inhibition of ATR”, Nat. […]

The test system is the same in experiment [5]. Put plainly: MTS cell density assay, triple combination of VE-822, Rucaparib and cisplatin. Conditions: H23 versus HFL1 cells, with 80 nM cisplatin, 96 h, MacSynergy II modified for triple combination. As for the experimental part: as §4
FIG. 6b. […] The synergy plots can be analyzed using methods described in Reaper et al, “Selective Killing of ATM- or p53-deficient cancer cells through inhibition of ATR”, Nat. […]

Entries after “also recorded” stand apart in the source; their conditions may differ.

This is an account of results in patent publication US10478430B2, “Compounds useful as inhibitors of ATR kinase and combination therapies thereof” (Vertex Pharmaceuticals Incorporated, priority 2012, dated 2019).

For the molecule `CNCc1ccc(-c2cc(-c3nc(-c4ccc(S(=O)(=O)C(C)C)cc4)cnc3N)on2)cc1` [VE-822], the “synergy with the PARP inhibitor Rucaparib” value in experiment [1] is on record as “strong; also recorded: synergizes with the PARP inhibitor Rucaparib in cancer”; in experiment [2], “negligible”; in the experiment with HFL1 normal lung cells it was “not normal cells”. Also, the “synergy with the PARP inhibitor Rucaparib across cancer cell lines” value in experiment [3] is recorded as “synergizes with the PARP inhibitor Rucaparib in many (but not all) cancer cell lines”. Besides, the “synergy of the combination of VE-822, Rucaparib and ionizing radiation” value in experiment [4] is given as “cancer-selective synergistic effects”. Further, the “synergy of the combination of VE-822, Rucaparib and cisplatin” value in experiment [5] is reported as “cancer-selective synergistic effects”.
